Legend:
[1] = background statement; cited from earlier work
obese ZSF1 rats [2] = experiment: Glomerular filtration rate (FITC-sinistrin, transcutaneous) in obese ZSF1 rats; format: in vivo, rat; details: 150 mg/kg oral gavage twice a day, 90 days (24 weeks of age), vs untreated ZSF1 rats
Source text: (§1) ZSF1 rat is a Leptin-resistant, obese, hypertensive Zucker diabetic fatty/Spontaneously hypertensive heart failure F1 hybrid (ZSF1) rat. The obese ZSF1 rat is described as a relevant pre-clinical model for the study of renal function decline to end stage renal disease in the setting of type 2 diabetes (Dower K et al., PLOS ONE 2017; 12 (7): e0181861).
(§2) Obese ZSF1 rats and lean ZSF1 (Lean) were 12-week-old at the time of treatment initiation.
(§3) The following groups were constituted: • Lean rats (untreated; n=5-8) • ZSF1 rats (untreated; n=9-12) • ZSF1 treated with PXL770 (n=8-12).
(§4) The compound of Example 2, also known as PXL770 was administered by oral gavage at the dose of 150 mg/kg twice a day for 8 days (13 weeks of age) or 90 days (24-week old of age).
(§5) The PXL770 suspension was prepared at the concentrations used in the study (150 mg/kg) in the vehicle, i.e. carboxymethylcellulose 0.5%/Tween 80 (98/2).
At D8 and D90, glomerular filtration rate was determined with the fluorescent glomerular filtration rate tracer fluorescein isothiocyanate (FITC)-sinistrin using the transcutaneous glomerular filtration rate system (NIC-Kidney; Mannheim Pharma and Diagnostics GmbH, Mannheim, Germany) (Schock-Kusch D. et al., PLOS One 2013; 8, e71519). […]

obese ZSF1 rats [3] = experiment: Albuminuria in 15 h overnight urine of obese ZSF1 rats; format: in vivo, rat; details: 150 mg/kg oral gavage twice a day
Source text: as §1, §2, §3, §4, §5
(§6) Randomly selected animals of each group (n=8-12) were placed in separate metabolic cages in order to collect 15 h over-night urine samples at D8 and D90. Albuminuria was determined as indicator of renal dysfunction using IDEXX Vetlab analyzer. Glycosuria was determined using IDEXX Vetlab analyzer. […]

obese ZSF1 rats [4] = experiment: Glycosuria in 15 h overnight urine of obese ZSF1 rats; format: in vivo, rat; details: 150 mg/kg oral gavage twice a day
Source text: as §1, §2, §3, §4, §5, §6

obese ZSF1 rats [5] = experiment: Urine volume (15 h overnight, metabolic cages) of obese ZSF1 rats; format: in vivo, rat; details: 150 mg/kg oral gavage twice a day, 90 days, vs untreated ZSF1 rats
Source text: as §1, §2, §3, §4, §5, §6

[6] = background statement; cited from earlier work; remark: listed apart in the source
[7] = tested on: preclinical model of diabetic nephropathy; details: K. O. Cameron et al., J. Med. Chem. 2016; cited from earlier work

Compound: MK-8722
- Cardiac side effects [1]: known to trigger cardiac side effects

Compound: O=c1[nH]c2sc(Cl)c(-c3ccc4c(c3O)CCCC4)c2c([O-])c1-c1ccccc1.[K+] [PXL770, monohydrate potassium salt of 2-chloro-4-hydroxy-3-(5-hydroxytetralin-6-yl)-5-phenyl-7H-thieno[2,3-b]pyridin-6-one]
- Glomerular filtration rate (GFR) (obese ZSF1 rats [2]): significantly prevented the decrease in GFR
- Albuminuria (urine albumin level) (obese ZSF1 rats [3]; 8 days (13 weeks of age), vs age-matched untreated ZSF1 rats): a decrease in albuminuria was observed
- Albuminuria (urine albumin level) (obese ZSF1 rats [3]; 90 days (24 weeks of age), vs untreated ZSF1 rats): significantly reduced
- Glycosuria (urine glucose level) (obese ZSF1 rats [4]; 8 days): reduced glycosuria
- Glycosuria (urine glucose level) (obese ZSF1 rats [4]; 90 days): reduced glycosuria
- Urine volume (obese ZSF1 rats [5]): decreased significantly urine volume

Compound: N#Cc1c(O)c2c(-c3ccc(-c4ccccc4O)cc3)csc2[nH]c1=O [Compound A-799662]
- Oral bioavailability [6]: poor oral bioavailability

Compound: O=C(O)c1c[nH]c2cc(Cl)c(-c3ccc(C4(O)CCC4)cc3)cc12 [PF-06409577]
- Efficacy in a preclinical model of diabetic nephropathy [7]: showed efficacy

From patent US20260216147A1, “USE OF A THIENOPYRIDONE DERIVATIVE IN THE TREATMENT OF DIABETIC NEPHROPATHY” (POXEL, priority 2020, published 2026)
